pIC50: −log10 of the molar value.

For this experiment, the system named is HIV. The experiment can be described thus: Table 1 IC50 of the examples (assay method not given; patent concerns inhibiting HIV replication). Type of experiment: cell-based. The settings on record: Human immunodeficiency virus 1.
The term pIC50 denotes the negative decadic logarithm of the IC50, by convention in mol/L. Read a low pIC50 as a large IC50. `Cc1cc2c(c(-c3cc(F)c4c(c3C)CCCO4)c1[C@H](OC(C)(C)C)C(=O)O)CCN2C(=O)c1ccc(Cl)cc1Cl` (atropisomer, axis not shown) [Example 70, (S)-2-(tert-Butoxy)-2-((R)-1-(2,4-dichlorobenzoyl)-4-(8-fluoro-5-methylchroman-6-yl)-6-methylindolin-5-yl)acetic acid] had a negative logarithm of the IC50 (pIC50) of 8.30.
To `COc1cc(Cl)ccc1C(=O)N1CCc2c1cc(C)c([C@H](OC(C)(C)C)C(=O)O)c2-c1cc(F)c2c(c1C)CCCO2` (atropisomer, axis not shown) [Example 72, (S)-2-(tert-Butoxy)-2-((R)-1-(4-chloro-2-methoxybenzoyl)-4-(8-fluoro-5-methylchroman-6-yl)-6-methylindolin-5-yl)acetic acid] belongs 8.15.
Next, `Cc1ccc(C(=O)N2CCc3c2cc(C)c([C@H](OC(C)(C)C)C(=O)O)c3-c2cc(F)c3c(c2C)CCCO3)cc1F` (atropisomer, axis not shown) [Example 73, (S)-2-(tert-Butoxy)-2-((R)-1-(3-fluoro-4-methylbenzoyl)-4-(8-fluoro-5-methylchroman-6-yl)-6-methylindolin-5-yl)acetic acid]: 8.22.
`COc1ccc(C(=O)N2CCc3c2cc(C)c([C@H](OC(C)(C)C)C(=O)O)c3-c2cc(F)c3c(c2C)CCCO3)cc1F` (atropisomer, axis not shown) [Example 74, (S)-2-(tert-butoxy)-2-((R)-1-(3-fluoro-4-methoxybenzoyl)-4-(8-fluoro-5-methylchroman-6-yl)-6-methylindolin-5-yl)acetic acid] had a pIC50 of 8.30.
Compound `COc1c(Cl)cccc1C(=O)N1CCc2c1cc(C)c([C@H](OC(C)(C)C)C(=O)O)c2-c1cc(F)c2c(c1C)CCCO2` (atropisomer, axis not shown) [Example 75, (S)-2-(tert-Butoxy)-2-((R)-1-(3-chloro-2-methoxybenzoyl)-4-(8-fluoro-5-methylchroman-6-yl)-6-methylindolin-5-yl)acetic acid] had a negative logarithm of the IC50 (pIC50) of 8.18.
To `Cc1cc2c(c(-c3cc(F)c4c(c3C)CCCO4)c1[C@H](OC(C)(C)C)C(=O)O)CCN2C(=O)c1cncc(F)c1` (atropisomer, axis not shown) [Example 76, (S)-2-(tert-Butoxy)-2-((R)-4-(8-fluoro-5-methylchroman-6-yl)-1-(5-fluoronicotinoyl)-6-methylindolin-5-yl)acetic acid] belongs 7.82; to `Cc1cc(C)cc(C(=O)N2CCc3c2cc(C)c([C@H](OC(C)(C)C)C(=O)O)c3-c2cc(F)c3c(c2C)CCCO3)c1` (atropisomer, axis not shown) [Example 77, (S)-2-(tert-Butoxy)-2-((R)-1-(3,5-dimethylbenzoyl)-4-(8-fluoro-5-methylchroman-6-yl)-6-methylindolin-5-yl)acetic acid], 8.30; to `CC(=O)Nc1cccc(C(=O)N2CCc3c2cc(C)c([C@H](OC(C)(C)C)C(=O)O)c3-c2cc(F)c3c(c2C)CCCO3)c1` (atropisomer, axis not shown) [Example 78, (S)-2-((R)-1-(3-Acetamidobenzoyl)-4-(8-fluoro-5-methylchroman-6-yl)-6-methylindolin-5-yl)-2-(tert-butoxy)acetic acid], 6.51.
To `COc1cccc(OC)c1C(=O)N1CCc2c1cc(C)c([C@H](OC(C)(C)C)C(=O)O)c2-c1cc(F)c2c(c1C)CCCO2` (atropisomer, axis not shown) [Example 79, (S)-2-(tert-Butoxy)-2-((R)-1-(2,6-dimethoxybenzoyl)-4-(8-fluoro-5-methylchroman-6-yl)-6-methylindolin-5-yl)acetic acid] belongs 7.26; to `Cc1ccc(F)cc1C(=O)N1CCc2c1cc(C)c([C@H](OC(C)(C)C)C(=O)O)c2-c1cc(F)c2c(c1C)CCCO2` (atropisomer, axis not shown) [Example 80, (S)-2-(tert-Butoxy)-2-((R)-1-(5-fluoro-2-methylbenzoyl)-4-(8-fluoro-5-methylchroman-6-yl)-6-methylindolin-5-yl)acetic acid], 8.40.
To `Cc1cncc(C(=O)N2CCc3c2cc(C)c([C@H](OC(C)(C)C)C(=O)O)c3-c2cc(F)c3c(c2C)CCCO3)c1` (atropisomer, axis not shown) [Example 81, (S)-2-(tert-Butoxy)-2-((R)-4-(8-fluoro-5-methylchroman-6-yl)-6-methyl-1-(5-methylnicotinoyl)indolin-5-yl)acetic acid] belongs 7.85.
As for `Cc1cc2c(c(-c3cc(F)c4c(c3C)CCCO4)c1[C@H](OC(C)(C)C)C(=O)O)CCN2C(=O)c1cc(Cl)cc(Cl)c1` (atropisomer, axis not shown) [Example 82, (S)-2-(tert-Butoxy)-2-((R)-1-(3,5-dichlorobenzoyl)-4-(8-fluoro-5-methylchroman-6-yl)-6-methylindolin-5-yl)acetic acid], the negative logarithm of the IC50 (pIC50) is 7.92.
As to `Cc1cc2c(c(-c3cc(F)c4c(c3C)CCCO4)c1[C@H](OC(C)(C)C)C(=O)O)CCN2C(=O)c1cccc2c1OCCO2` (atropisomer, axis not shown) [Example 83, (S)-2-(tert-Butoxy)-2-((R)-1-(2,3-dihydrobenzo[b][1,4]dioxine-5-carbonyl)-4-(8-fluoro-5-methylchroman-6-yl)-6-methylindolin-5-yl)acetic acid], the negative-log IC50 (pIC50) was 8.15.
To `COc1cccc(C(=O)N2CCc3c2cc(C)c([C@H](OC(C)(C)C)C(=O)O)c3-c2cc(F)c3c(c2C)CCCO3)c1OC` (atropisomer, axis not shown) [Example 84, (S)-2-(tert-Butoxy)-2-((R)-1-(2,3-dimethoxybenzoyl)-4-(8-fluoro-5-methylchroman-6-yl)-6-methylindolin-5-yl)acetic acid] belongs 7.39.
To `COc1ccc(C(=O)N2CCc3c2cc(C)c([C@H](OC(C)(C)C)C(=O)O)c3-c2cc(F)c3c(c2C)CCCO3)c(F)c1` (atropisomer, axis not shown) [Example 85, (S)-2-(tert-Butoxy)-2-((R)-1-(2-fluoro-4-methoxybenzoyl)-4-(8-fluoro-5-methylchroman-6-yl)-6-methylindolin-5-yl)acetic acid] belongs 8.22; to `COc1ccc(C(=O)N2CCc3c2cc(C)c([C@H](OC(C)(C)C)C(=O)O)c3-c2cc(F)c3c(c2C)CCCO3)cc1OC` (atropisomer, axis not shown) [Example 86, (S)-2-(tert-Butoxy)-2-((R)-1-(3,4-dimethoxybenzoyl)-4-(8-fluoro-5-methylchroman-6-yl)-6-methylindolin-5-yl)acetic acid], 8.30.
For `COc1c(C)cccc1C(=O)N1CCc2c1cc(C)c([C@H](OC(C)(C)C)C(=O)O)c2-c1cc(F)c2c(c1C)CCCO2` (atropisomer, axis not shown) [Example 87, (S)-2-(tert-Butoxy)-2-((R)-4-(8-fluoro-5-methylchroman-6-yl)-1-(2-methoxy-3-methylbenzoyl)-6-methylindolin-5-yl)acetic acid], the pIC50 is 8.30.
To `COc1ccc(C(=O)N2CCc3c2cc(C)c([C@H](OC(C)(C)C)C(=O)O)c3-c2cc(F)c3c(c2C)CCCO3)c(OC)c1` (atropisomer, axis not shown) [Example 88, (S)-2-(tert-Butoxy)-2-((R)-1-(2,4-dimethoxybenzoyl)-4-(8-fluoro-5-methylchroman-6-yl)-6-methylindolin-5-yl)acetic acid] belongs 8.30; to `COc1cc(C)cc(C(=O)N2CCc3c2cc(C)c([C@H](OC(C)(C)C)C(=O)O)c3-c2cc(F)c3c(c2C)CCCO3)c1` (atropisomer, axis not shown) [Example 89, (S)-2-(tert-Butoxy)-2-((R)-4-(8-fluoro-5-methylchroman-6-yl)-1-(3-methoxy-5-methylbenzoyl)-6-methylindolin-5-yl)acetic acid], 8.52.
Next, `COc1ncccc1C(=O)N1CCc2c1cc(C)c([C@H](OC(C)(C)C)C(=O)O)c2-c1cc(F)c2c(c1C)CCCO2` (atropisomer, axis not shown) [Example 90, (S)-2-(tert-Butoxy)-2-((R)-4-(8-fluoro-5-methylchroman-6-yl)-1-(2-methoxynicotinoyl)-6-methylindolin-5-yl)acetic acid]: 8.30; `Cc1cc2c(c(-c3cc(F)c4c(c3C)CCCO4)c1[C@H](OC(C)(C)C)C(=O)O)CCN2C(=O)c1ccncc1F` (atropisomer, axis not shown) [Example 91, (S)-2-(tert-Butoxy)-2-((R)-4-(8-fluoro-5-methylchroman-6-yl)-1-(3-fluoroisonicotinoyl)-6-methylindolin-5-yl)acetic acid]: 6.81.
Consider `Cc1cc2c(c(-c3cc(F)c4c(c3C)CCCO4)c1[C@H](OC(C)(C)C)C(=O)O)CCN2C(=O)c1cccc(Cl)c1Cl` (atropisomer, axis not shown) [Example 92, (S)-2-(tert-Butoxy)-2-((R)-1-(2,3-dichlorobenzoyl)-4-(8-fluoro-5-methylchroman-6-yl)-6-methylindolin-5-yl)acetic acid], for which the pIC50 is 8.22.
For the compound `Cc1cc2c(c(-c3cc(F)c4c(c3C)CCCO4)c1[C@H](OC(C)(C)C)C(=O)O)CCN2C(=O)c1cccc(C(F)(F)F)c1` (atropisomer, axis not shown) [Example 93, (S)-2-(tert-Butoxy)-2-((R)-4-(8-fluoro-5-methylchroman-6-yl)-6-methyl-1-(3-(trifluoromethyl)benzoyl)indolin-5-yl)acetic acid], the pIC50 is 7.72.
In turn, `Cc1ccc(C(=O)N2CCc3c2cc(C)c([C@H](OC(C)(C)C)C(=O)O)c3-c2cc(F)c3c(c2C)CCCO3)cc1C` (atropisomer, axis not shown) [Example 94, (S)-2-(tert-Butoxy)-2-((R)-1-(3,4-dimethylbenzoyl)-4-(8-fluoro-5-methylchroman-6-yl)-6-methylindolin-5-yl)acetic acid] gave a pIC50 of 8.40.
As to `CNC(=O)c1ccc(C(=O)N2CCc3c2cc(C)c([C@H](OC(C)(C)C)C(=O)O)c3-c2cc(F)c3c(c2C)CCCO3)cc1` (atropisomer, axis not shown) [Example 95, (S)-2-(tert-Butoxy)-2-((R)-4-(8-fluoro-5-methylchroman-6-yl)-6-methyl-1-(4-(methylcarbamoyl)benzoyl)indolin-5-yl)acetic acid], the pIC50 was 6.85.

Source of the values: US20190284136A1, “INDOLINE DERIVATIVES” (ViiV HEALTHCARE UK LIMITED, priority 2016, published 2019).
